The structures appear in SMILES notation. Counter-ions that a name gives are not always drawn. Where only a bound is given, the exact number is not on record here.

In general, IC50 refers to the midpoint of a concentration-inhibition curve.

For this test, the target named is Human BACE-1 (Homo sapiens, UniProt P56817). Put plainly: Test 1: Inhibition of Human BACE-1. The test is classed as biochemical. The following applies: Test 1; recombinant BACE-1 (extracellular domain), acetate buffer pH 4.5, 1 hour with test compound at room temperature, fluorescence-quenched peptide substrate; read-out: Bace IC50.
Sequence of Human BACE-1 (P56817 46-457 limits assumed): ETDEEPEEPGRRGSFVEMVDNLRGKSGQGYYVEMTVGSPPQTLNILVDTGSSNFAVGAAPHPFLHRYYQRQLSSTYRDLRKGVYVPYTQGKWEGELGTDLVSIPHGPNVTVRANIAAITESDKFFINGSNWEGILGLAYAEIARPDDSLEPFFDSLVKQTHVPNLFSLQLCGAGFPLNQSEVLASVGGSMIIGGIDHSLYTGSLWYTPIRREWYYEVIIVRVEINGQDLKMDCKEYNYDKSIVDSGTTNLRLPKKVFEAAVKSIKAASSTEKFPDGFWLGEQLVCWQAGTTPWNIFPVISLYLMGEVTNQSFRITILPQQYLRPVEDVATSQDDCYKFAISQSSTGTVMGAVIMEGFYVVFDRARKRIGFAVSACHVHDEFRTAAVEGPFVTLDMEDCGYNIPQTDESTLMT
For the compound `COc1ccc(C(=O)Nc2cccc([C@]3(C)COCC(N)=N3)c2)nc1` [Example 30, 5-Methoxy-pyridine-2-carboxylic acid [3-((R)-5-amino-3-methyl-3,6-dihydro-2H-[1,4]oxazin-3-yl)-phenyl]-amide], the IC50 came to 330 nM.

In the case of `NC1=NC(c2cccc(NC(=O)c3ncc(Br)cc3O)c2)(C(F)F)COC1` (centres unmarked) [Example 108, 5-Bromo-3-hydroxy-pyridine-2-carboxylic acid [3-(5-amino-3-difluoromethyl-3,6-dihydro-2H-[1,4]oxazin-3-yl)-phenyl]-amide hydrochloride], the IC50 turned out to be 28 nM.

For the compound `CC1(C)OC[C@](c2cc(NC(=O)c3ccc(C#N)cn3)ccc2F)(C(F)F)N=C1N` [Example 79, 5-Cyano-pyridine-2-carboxylic acid[3-(5-amino-3-difluoromethyl-6,6-dimethyl-3,6-dihydro-2H-[1,4]oxazin-3-yl)-4-fluoro-phenyl]-amide], the IC50 worked out at 120 nM.

On to `NC1=N[C@@](c2cc(NC(=O)c3ncc(OC(F)F)cc3Cl)ccc2F)(C(F)F)COC1` [Example 185, 3-Chloro-5-difluoromethoxy-pyridine-2-carboxylic acid [3-((R)-5-amino-3-difluoromethyl-3,6-dihydro-2H-[1,4]oxazin-3-yl)-4-fluoro-phenyl]-amide], for which the half-maximal inhibitory concentration (IC50) stood at 50 nM.

Take `CC#CCOc1cnc(C(=O)Nc2ccc(F)c([C@]3(C(F)F)COCC(N)=N3)c2)c(C)n1` [Example 182, 5-But-2-ynyloxy-3-methyl-pyrazine-2-carboxylic acid [3-((R)-5-amino-3-difluoromethyl-3,6-dihydro-2H-[1,4]oxazin-3-yl)-4-fluoro-phenyl]-amide]: the IC50 is 4 nM.

Turning to `CC1(c2cccc(NC(=O)c3cccnc3)c2)COCC(N)=N1` (centres unmarked) [Example 28, N-[3-(5-Amino-3-methyl-3,6-dihydro-2H-[1,4]oxazin-3-yl)-phenyl]-nicotinamide], the IC50 amounted to 60000 nM.

For `CC1(c2cccc(NC(=O)c3ccc(O)nn3)c2)COCC(N)=N1` (centres unmarked) [Example 12, 6-Hydroxy-pyridazine-3-carboxylic acid [3-(5-amino-3-methyl-3,6-dihydro-2H-[1,4]oxazin-3-yl)-phenyl]-amide], the IC50 came out at 850 nM.

With `Cn1cc([N+](=O)[O-])c(C(=O)Nc2ccc(F)c([C@]3(C(F)F)COCC(N)=N3)c2)n1` [Example 151, 1-Methyl-4-nitro-1H-pyrazole-3-carboxylic acid [3-((R)-5-amino-3-difluoromethyl-3,6-dihydro-2H-[1,4]oxazin-3-yl)-4-fluoro-phenyl]-amide hydrochloride], the IC50 came out at 1200 nM.

With `Cc1c(C(=O)Nc2ccc(F)c([C@]3(C(F)F)COCC(N)=N3)c2)oc2ccc(Br)cc12` [Example 114, 5-Bromo-3-methyl-benzofuran-2-carboxylic acid [3-((R)-5-amino-3-difluoromethyl-3,6-dihydro-2H-[1,4]oxazin-3-yl)-4-fluoro-phenyl]-amide hydrochloride], the IC50 is 6 nM.

As to `CC1(c2cccc(NC(=O)C3CCC(F)(F)CC3)c2)COCC(N)=N1` (centres unmarked) [Example 26, reference compound], the IC50 was > 130000 nM.

For the compound `CC1(c2cccc(NC(=O)C3CCCCC3)c2)COCC(N)=N1` (centres unmarked) [Example 25, reference compound], the IC50 was > 130000 nM.

For the compound `NC1=N[C@@](c2cc(NC(=O)c3ncc(Br)cn3)ccc2F)(C(F)F)COC1` [Example 121, 5-Bromo-pyrimidine-2-carboxylic acid [3-((R)-5-amino-3-difluoromethyl-3,6-dihydro-2H-[1,4]oxazin-3-yl)-4-fluoro-phenyl]-amide hydrochloride], the IC50 was found to be 36 nM.

In the case of `Cc1nc(C(=O)Nc2cc(Br)cc([C@]3(C)COCC(N)=N3)c2)c(C)o1` [Example 58, 2,5-Dimethyl-oxazole-4-carboxylic acid [3-((R)-5-amino-3-methyl-3,6-dihydro-2H-[1,4]oxazin-3-yl)-5-bromo-phenyl]amide], the IC50 stood at 780 nM.

Turning to `Cc1nc(C(=O)Nc2ccc(F)c([C@]3(C(F)F)COCC(N)=N3)c2)c(C)o1` [Example 128, 2,5-Dimethyl-oxazole-4-carboxylic acid [3-((R)-5-amino-3-difluoromethyl-3,6-dihydro-2H-[1,4]oxazin-3-yl)-4-fluoro-phenyl]-amide], the IC50 worked out at 170 nM.

Regarding `NC1=NC(c2cc(NC(=O)c3ccc(Br)cn3)c(F)cc2F)(C(F)F)COC1` (centres unmarked) [Example 81, 5-Bromo-pyridine-2-carboxylic acid [5-(5-amino-3-difluoromethyl-3,6-dihydro-2H-[1,4]oxazin-3-yl)-2,4-difluoro-phenyl]-amide hydrochloride], the IC50 turned out to be 1100 nM.

For `CC1(c2cc(NC(=O)c3ccc(C#N)cn3)ccc2F)N=C(N)COCC1(F)F` (centres unmarked) [Example 156, 5-Cyano-pyridine-2-carboxylic acid [3-(3-amino-6,6-difluoro-5 methyl-2,5,6,7-tetrahydro[1,4]oxazepin-5-yl)-4 fluoro-phenyl]-amide], the IC50 was 34 nM.

With `COCCOc1cnc(C(=O)Nc2ccc(F)c([C@]3(C(F)F)COCC(N)=N3)c2)cn1` [Example 135, 5-(2-Methoxy-ethoxy)-pyrazine-2-carboxylic acid [3-((R)-5-amino-3-difluoromethyl-3,6-dihydro-2H-[1,4]oxazin-3-yl)-4-fluoro-phenyl]-amide hydrochloride], the IC50 was 45 nM.

In the case of `NC1=N[C@@](c2cc(NC(=O)c3cc4cncnc4[nH]3)ccc2F)(C(F)F)COC1` [Example 157, 7H-Pyrrolo[2,3-d]pyrimidine-6-carboxylic acid [3-((R)-5-amino-3-difluoromethyl-3,6-dihydro-2H-[1,4]oxazin-3-yl)-4-fluoro-phenyl]-amide], the IC50 came to 5200 nM.

As to `C[C@@H]1OC[C@](c2cc(NC(=O)c3ccc(Br)cn3)ccc2F)(C(F)F)N=C1N` (relative stereo) [Example 78, 5-Bromo-pyridine-2-carboxylic acid [3-((3R*,6S*)-5-amino-3-difluoromethyl-6-methyl-3,6-dihydro-2H-[1,4]oxazin-3-yl)-4-fluoro-phenyl]-amide hydrochloride], the IC50 was determined as 38 nM.

Turning to `COc1cc(Br)cnc1C(=O)Nc1cccc(C2(C(F)F)COCC(N)=N2)c1` (centres unmarked) [Example 107, 5-Bromo-3-methoxy-pyridine-2-carboxylic acid [3-(5-amino-3-difluoromethyl-3,6-dihydro-2H-[1,4]oxazin-3-yl)-phenyl]-amide hydrochloride], the IC50 is 820 nM.

`NC1=N[C@@](c2cc(NC(=O)c3cnc(OCC(F)F)cn3)ccc2F)(C(F)F)COC1` [Example 123, 5-(2,2-Difluoro-ethoxy)-pyrazine-2-carboxylic acid [3-((R)-5-amino-3-difluoromethyl-3,6-dihydro-2H-[1,4]oxazin-3-yl)-4-fluoro-phenyl]-amide hydrochloride]: the IC50 stood at 97 nM.

Regarding `Cc1cnc(C(=O)Nc2cc(Br)cc([C@]3(C)COCC(N)=N3)c2)cn1` [Example 57, 5-Methyl-pyrazine-2-carboxylic acid [3-((R)-5-amino-3-methyl-3,6-dihydro-2H-[1,4]oxazin-3-yl)-5-bromo-phenyl]-amide], the IC50 is 1700 nM.

Turning to `NC1=N[C@@](c2cc(NC(=O)c3cc4cccn4cn3)ccc2F)(C(F)F)COC1` [Example 163, Pyrrolo[1,2-c]pyrimidine-3-carboxylic acid [3-((R)-5-amino-3-difluoromethyl-3,6-dihydro-2H-[1,4]oxazin-3-yl)-4-fluoro-phenyl]-amide], the IC50 is 680 nM.

The values above are taken from patent US20120172359A1 (NOVARTIS AG, priority 2010, published 2012).
